Measured values reported in US20170334899A1, “AMINO-SUBSTITUTED ISOTHIAZOLES” (Bayer Pharma Aktiengesellschaft, priority 2014, published 2017).

Key:
[1] = tested on: human cervical tumor cell line HeLa (ATCC CCL-2); test: SAC-Formation - Nocodazole-Induced Assay; type: cell-based; conditions: 24 h, HeLa cells, nocodazole 0.1 μg/ml together with test compound, decrease of mitotic cells (phospho-histone H3 Ser10)
In short: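 HeLa cells, plated overnight, were treated 24 h at 37 °C with nocodazole (0.1 μg/ml final) plus test compound (0.005–20 μM, 0.5% DMSO) added at the same time. After fixation, anti-phospho-histone H3 Ser10 and Hoechst staining gave the mitotic cell fraction by imaging. Values came from four-parameter Hill fits.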

[2] = tested on: human cervical tumor cell line HeLa (ATCC CCL-2); test: SAC-Formation - Paclitaxel-Induced Assay; type: cell-based; conditions: 24 h, HeLa cells, paclitaxel 0.05 μM, test range 0.005 μM-20 μM, read-out: IC50 [mol/l] SAC-Formation - Paclitaxel-Induced Assay
In short: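 HeLa cells incubated overnight at 37° C, then given paclitaxel (0.05 μM final) plus test compound (0.005–20 μM, 0.5% DMSO) together for 24 h at 37° C. Fixed cells stained for phospho-histone H3 Ser10 (mitotic cells) and Hoechst 33342 (cell count); imaging-derived mitotic index fitted by four-parameter Hill equation.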

Row | SMILES | IC50 ([1]; Homo sapiens, HeLa) | IC50 ([2]; Homo sapiens, HeLa) | IC50 [2] | IC50 [1]
1 | Cc1nsc(Nc2cnc(C(F)(F)F)cn2)c1C(=O)Nc1ccc(OC[C@H]2CCN(CC(F)(F)F)C2)nc1 (racemic) [Example 133, 3-Methyl-N-(6-{[(SR)-1-(2,2,2-trifluoroethyl)pyrrolidin-3-yl]methoxy}pyridin-3-yl)-5-{[5-(trifluoromethyl)pyrazin-2-yl]amino}-1,2-thiazole-4-carboxamide] | 27 nM | – | – | –
2 | Cc1nsc(Nc2cnc(C(F)(F)F)cn2)c1C(=O)Nc1ccc(OC2CCNCC2)nc1 [Example 6, 3-Methyl-N-[6-(piperidin-4-yloxy)pyridin-3-yl]-5-{[5-(trifluoromethyl)pyrazin-2-yl]amino}-1,2-thiazole-4-carboxamide] | 14000 nM | 19000 nM | – | –
3 | Cc1nsc(Nc2cnc(C(F)(F)F)cn2)c1C(=O)Nc1ccc(OC2CCN(CCF)CC2)nc1 [Example 7, N-(6-{[1-(2-Fluoroethyl)piperidin-4-yl]oxy}pyridin-3-yl)-3-methyl-5-{[5-(trifluoromethyl)pyrazin-2-yl]amino}-1,2-thiazole-4-carboxamide] | 600 nM | 770 nM | – | –
4 | Cc1nsc(Nc2cnc(C(F)(F)F)cn2)c1C(=O)Nc1ccc(OC2CCN(CC(F)F)CC2)nc1 [Example 8, N-(6-{[1-(2,2-Difluoroethyl)piperidin-4-yl]oxy}pyridin-3-yl)-3-methyl-5-{[5-(trifluoromethyl)pyrazin-2-yl]amino}-1,2-thiazole-4-carboxamide] | 1500 nM | 1500 nM | – | –
5 | Cc1nsc(Nc2cnc(C(F)(F)F)cn2)c1C(=O)Nc1ccc(OC2CCN(CC(F)(F)F)CC2)nc1 [Example 9, -Methyl-N-(6-{[1-(2,2,2-trifluoroethyl)piperidin-4-yl]oxy}pyridin-3-yl)-5-{[5-(trifluoromethyl)pyrazin-2-yl]amino}-1,2-thiazole-4-carboxamide] | 220 nM | 360 nM | – | –
6 | Cc1nsc(Nc2cnc(C(F)(F)F)cn2)c1C(=O)Nc1ccc(OC2CCN(CCC(F)(F)F)CC2)nc1 [Example 10, 3-Methyl-5-{[5-(trifluoromethyl)pyrazin-2-yl]amino}-N-(6-{[1-(3,3,3-trifluoropropyl)-piperidin-4-yl]oxy}pyridin-3-yl)-1,2-thiazole-4-carboxamide] | – | – | 340 nM | 260 nM
7 | CC(=O)N1CCC(Oc2ccc(NC(=O)c3c(C)nsc3Nc3cnc(C(F)(F)F)cn3)cn2)CC1 [Example 11, N-{6-[(1-Acetylpiperidin-4-yl)oxy]pyridin-3-yl}-3-methyl-5-{[5-(trifluoromethyl)-pyrazin-2-yl]amino}-1,2-thiazole-4-carboxamide] | 1000 nM | 150 nM | – | –
8 | Cc1nsc(Nc2cncc(C(F)(F)F)n2)c1C(=O)Nc1ccc(OC2CCN(C(=O)OC(C)(C)C)CC2)nc1 [Example 12, tert-Butyl 4-[(5-{[(3-methyl-5-{[6-(trifluoromethyl)pyrazin-2-yl]amino}-1,2-thiazol-4-yl)carbonyl]amino}pyridin-2-yl)oxy]piperidine-1-carboxylate] | 220 nM | 230 nM | – | –
9 | Cc1nsc(Nc2cnc(C(F)(F)F)cn2)c1C(=O)Nc1ccc(C(=O)OC(C)(C)C)cc1 [Example 96, tert-Butyl 4-{[(3-methyl-5-{[5-(trifluoromethyl)pyrazin-2-yl]amino}-1,2-thiazol-4-yl)carbonyl]amino}benzoate] | 1.8 nM | 39 nM | – | –
10 | Cc1nsc(Nc2cnc(C(F)(F)F)cn2)c1C(=O)Nc1ccc(C(=O)O)cc1 [Example 97, 4-{[(3-Methyl-5-{[5-(trifluoromethyl)pyrazin-2-yl]amino}-1,2-thiazol-4-yl)carbony]-amino}benzoic acid] | 24 nM | 20000 nM | – | –
11 | Cc1nsc(Nc2ccc(C#N)cn2)c1C(=O)Nc1ccc(C(=O)OC(C)(C)C)cc1 [Example 98, tert-Butyl 4-[({5-[(5-cyanopyridin-2-yl)amino]-3-methyl-1,2-thiazol-4-yl}carbonyl)-amino]benzoate] | 3.8 nM | 7.9 nM | – | –
12 | Cc1nsc(Nc2cnc3ccccc3n2)c1C(=O)Nc1cccc(C(=O)NCC(=O)O)c1 [Example 99, N-[3-({[3-Methyl-5-(quinoxalin-2-ylamino)-1,2-thiazol-4-yl]carbonyl}amino)benzoy]-glycine] | 1100 nM | 20000 nM | – | –
13 | COC(=O)CNC(=O)c1cccc(NC(=O)c2c(C)nsc2Nc2cnc3ccccc3n2)c1 [Example 100, Methyl N-[3-({[3-methyl-5-(quinoxalin-2-ylamino)-1,2-thiazol-4-yl]carbonyl}amino)-benzoyl]glycinate] | 1500 nM | 20000 nM | – | –
14 | Cc1nsc(Nc2cnc3ccccc3n2)c1C(=O)Nc1cccc(C(=O)N2CCNCC2)c1 [Example 101, 3-Methyl-N-[3-(piperazin-1-ylcarbonyl)phenyl]-5-(quinoxalin-2-ylamino)-1,2-thiazole-4-carboxamide] | 1800 nM | 20000 nM | – | –
15 | Cc1nsc(Nc2cnc3ccccc3n2)c1C(=O)Nc1cccc(C(=O)N2CCN(C)CC2)c1 [Example 102, 3-Methyl-N-{3-[(4-methylpiperazin-1-yl)carbonyl]phenyl}-5-(quinoxalin-2-ylamino)-1,2-thiazole-4-carboxamide] | 4900 nM | 7500 nM | – | –
16 | Cc1nsc(Nc2cnc3ccccc3n2)c1C(=O)Nc1cccc(C(=O)N[C@@H](CCC(N)=O)C(=O)O)c1 [Example 103, N^2-[3-({[3-Methyl-5-(quinoxalin-2-ylamino)-1,2-thiazol-4-yl]carbonyl}amino)-benzoyl]glutamine] | 13000 nM | 20000 nM | – | –
17 | Cc1nsc(Nc2cnc3ccccc3n2)c1C(=O)Nc1cccc(C(=O)N[C@H](C(=O)O)[C@@H](C)OC(C)(C)C)c1 [Example 104, O-tert-Butyl-N-[3-({[3-methyl-5-(quinoxalin-2-ylamino)-1,2-thiazol-4-yl]-carbonyl}amino)benzoyl]threonine] | 1800 nM | 3200 nM | – | –
18 | Cc1nsc(Nc2cnc3ccccc3n2)c1C(=O)Nc1cccc(C(=O)N[C@H](C(=O)O)[C@@H](C)O)c1 [Example 105, N-[3-({[3-methyl-5-(quinoxalin-2-ylamino)-1,2-thiazol-4-yl]carbonyl}amino)-benzoyl]threonine] | 20000 nM | 20000 nM | – | –
19 | Cc1noc(-c2cccc(NC(=O)c3c(C)nsc3Nc3cnc4ccccc4n3)c2)n1 [Example 106, 3-Methyl-N-[3-(3-methyl-1,2,4-oxadiazol-5-yl)phenyl]-5-(quinoxalin-2-ylamino)-1,2-thiazole-4-carboxamide] | 140 nM | 130 nM | – | –
20 | Cc1nsc(Nc2cnc3ccccc3n2)c1C(=O)Nc1cccc(-c2nnc(C(C)(C)C)o2)c1 [Example 107, N-[3-(5-tert-Butyl-1,3,4-oxadiazol-2-yl)phenyl]-3-methyl-5-(quinoxalin-2-ylamino)-1,2-thiazole-4-carboxamide] | 11 nM | 210 nM | – | –
21 | Cc1nsc(Nc2cnc3ccccc3n2)c1C(=O)Nc1cccc(-c2nc(C(C)(C)C)no2)c1 [Example 108, N-[3-(3-tert-Butyl-1,2,4-oxadiazol-5-yl)phenyl]-3-methyl-5-(quinoxalin-2-ylamino)-1,2-thiazole-4-carboxamide] | 19 nM | 53 nM | – | –
22 | Cc1nsc(Nc2cnc(C(F)(F)F)cn2)c1C(=O)Nc1ccc(OCC2CCN(C(=O)OC(C)(C)C)C2)nc1 (stereo not drawn) [Example 109, tert-Butyl 3-{[(5-{[(3-methyl-5-{[5-(trifluoromethyl)pyrazin-2-yl]amino}-1,2-thiazol-4-yl)carbonyl]amino}pyridin-2-yl)oxy]methyl}pyrrolidine-1-carboxylate] | 7 nM | 37 nM | – | –
23 | Cc1nsc(Nc2cncc(C(F)(F)F)n2)c1C(=O)Nc1ccc(OCC2CCN(C(=O)OC(C)(C)C)C2)nc1 (stereo not drawn) [Example 110, tert-Butyl 3-{[(5-{[(3-methyl-5-{[6-(trifluoromethyl)pyrazin-2-yl]amino}-1,2-thiazol-4-yl)carbonyl]amino}pyridin-2-yl)oxy]methyl}pyrrolidine-1-carboxylate] | 35 nM | 150 nM | – | –
24 | CNS(=O)(=O)c1ccc(NC(=O)c2c(C)nsc2Nc2cnc3ccccc3n2)cc1 [Example 111, 3-Methyl-N-[4-(methylsulfannoyl)phenyl]-5-(quinoxalin-2-ylamino)-1,2-thiazole-4-carboxamide] | 110 nM | 130 nM | – | –
25 | CC(=O)N(C)CCOc1ccc(NC(=O)c2c(C)nsc2Nc2nc3c(C(F)(F)F)cccc3s2)cn1 [Example 112, N-(6-{2-[Acetyl(methyl)amino]-ethoxy}pyridin-3-yl)-3-methyl-5-{[4-(trifluoromethyl)-1,3-benzothiazol-2-yl]amino}-1,2-thiazole-4-carboxamide] | 230 nM | 800 nM | – | –
26 | Cc1nsc(Nc2cnc(C(F)(F)F)cn2)c1C(=O)Nc1ccc(OC[C@H]2CCN(CC(F)F)C2)nc1 [Example 132, N-(6-{[(3S)-1-(2,2-difluoroethyl)pyrrolidin-3-yl]methoxy}pyridin-3-yl)-3-methyl-5-{[5-(trifluoromethyl)pyrazin-2-yl]amino}-1,2-thiazole-4-carboxamide] | 27 nM | – | – | –
27 | Cc1nsc(Nc2cnc(C(F)(F)F)cn2)c1C(=O)Nc1ccc(OC[C@H]2CCN(CCC(F)(F)F)C2)nc1 [Example 134, 3-Methyl-5-{[5-(trifluoromethyl)pyrazin-2-yl]amino}-N-(6-{[(3S)-1-(3,3,3-trifluoropropyl)pyrrolidin-3-yl]methoxy}pyridin-3-yl)-1,2-thiazole-4-carboxamide] | 36 nM | – | – | –
